Experimental data as given in patent US11484543B2, “Compositions and methods for diagnosing and treating diseases and disorders associated with mutant KCNJ5” (The Rockefeller University, priority 2017, dated 2022).
Where two headings read alike, the source gives them in different places.

Assays:
KCNJ5^WT = target: T1, KCNJ5^WT (Homo sapiens, UniProt P48544); experiment: Membrane potential assay (FLIPR dye) in inducible KCNJ5^WT HEK293 cells; assay type: cell-based; conditions: tested as in FIG. 7 (FIGS. 9 and 10)
T1 construct: expressed in transfected cells
T1 sequence (P48544 1-419): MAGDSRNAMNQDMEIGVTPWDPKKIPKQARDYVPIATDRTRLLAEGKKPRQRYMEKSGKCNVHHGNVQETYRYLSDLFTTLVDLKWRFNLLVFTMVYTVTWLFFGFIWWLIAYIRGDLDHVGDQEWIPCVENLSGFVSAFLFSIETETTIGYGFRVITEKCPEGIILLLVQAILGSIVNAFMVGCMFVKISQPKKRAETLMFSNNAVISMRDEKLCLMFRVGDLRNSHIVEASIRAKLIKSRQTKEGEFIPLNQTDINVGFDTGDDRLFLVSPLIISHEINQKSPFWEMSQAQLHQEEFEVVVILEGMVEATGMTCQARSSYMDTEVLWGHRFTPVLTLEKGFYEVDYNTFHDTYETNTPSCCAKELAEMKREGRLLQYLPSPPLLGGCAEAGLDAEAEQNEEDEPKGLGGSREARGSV

[1] = single dose of 300 mg, healthy adults, cited from earlier work

Compound	inhibition of KCNJ5^WT by synthesized macrolide derivatives (KCNJ5^WT)	maximum serum concentrations [1] [mg/L]	maximum serum concentrations ([1]; conversion of 16.4 mg/L) [µM]
N-demethyl-N-isobutyl-8,9-anhydroerythromycin A 6,9-hemiacetal [PLUX37]	no inhibition	–	–
CC[C@H]1OC(=O)[C@H](C)[C@@H](O[C@H]2C[C@@](C)(OC)[C@@H](O)[C@H](C)O2)[C@H](C)[C@@H](O[C@@H]2O[C@H](C)C[C@H](N(C)C)[C@H]2O)[C@](C)(O)C[C@@H](C)/C(=N\OCOCCOC)[C@H](C)[C@@H](O)[C@]1(C)O [Roxithromycin, roxithromycin]	–	16.4	~17
